In US10611740B2, “Aryl dihydro-2H-benzo[b][1,4]oxazine sulfonamide and related compounds for use as agonists of RORγ and the treatment of disease” (Lycera Corporation, priority 2015, dated 2020):
pEC50: −log10 of the molar value.

How the values were obtained:
Gal4-RORγ-LBD = molecular target: T1, Gal4-RORγ-LBD (Homo sapiens, UniProt P51449); test: Gal4-RORγ Luciferase Reporter Assay in HEK-293T Cells; type: cell-based; conditions: HEK-293 cells, luciferase reporter, with 2 μM ursolic acid
T1 construct: expressed in transfected cells; host or cells: HEK-293 cells (pcDNA3.1neo plasmid)
T1 sequence (P51449 269-508 limits assumed): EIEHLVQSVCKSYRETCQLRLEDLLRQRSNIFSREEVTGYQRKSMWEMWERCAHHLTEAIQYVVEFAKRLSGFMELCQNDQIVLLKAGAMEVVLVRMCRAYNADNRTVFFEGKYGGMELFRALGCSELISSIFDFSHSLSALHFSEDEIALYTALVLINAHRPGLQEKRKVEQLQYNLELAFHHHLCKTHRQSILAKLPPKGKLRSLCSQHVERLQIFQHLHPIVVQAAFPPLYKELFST
Outline: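 Luminescence read-out (One-Glo, 10 min RT) after overnight compound exposure at 37 °C in HEK-293 cells carrying Gal4-RORγ-LBD plus a Gal4-luciferase reporter, in the presence of 2 μM ursolic acid. Max Response is the upper plateau from a 4-parameter logistic fit, normalized to untreated signal = 100.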

RORγ-LBD = molecular target: T2, RORγ-LBD (Homo sapiens, UniProt P51449); test: RORγ-Ligand Binding Domain (LBD) TR-FRET Assay; type: biochemical;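 on TR-FRET Assay Max Response: 665/615 nm ratio relative to signal without ursolic acid or compound set at 100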
T2 construct: made in house; host or cells: SF9 cells (baculovirus)
T2 sequence (P51449 269-508 limits assumed): T1 sequence (P51449 269-508 limits assumed)
Outline: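 This TR-FRET coactivator assay pairs baculovirus-expressed His-RORγ-LBD (~3 nM final) with biotin-SRC1 LXXLL peptide at 200 nM final in pH 7.0 Tris/KCl/EDTA/DTT/BSA buffer.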

Compound | pEC50 (Gal4-RORγ-LBD) | Gal4-RORγ Assay Max Response (Gal4-RORγ-LBD) | pEC50 (RORγ-LBD) | TR-FRET Assay Max Response (RORγ-LBD)
CC(C)c1ccccc1-c1ccc2c(c1)N(S(=O)(=O)c1cccc(C(F)(F)F)c1)C[C@H](CCC(=O)O)O2 [Compound 2AJ, (S)-3-(6-(2-isopropylphenyl)-4-((3-(trifluoromethyl)phenyl)-sulfonyl)-3,4-dihydro-2H-benzo[b][1,4]oxazin-2-yl)propanoic acid] | > 6.30 | ** (The symbol “**” indicates a value in the range of greater than 90 to 150) | > 6.30 | **** (The symbol “****” indicates a value greater than 200)
O=C(O)CC[C@H]1CN(S(=O)(=O)c2cccc(C(F)(F)F)c2)c2cc(-c3cncc(C(F)(F)F)c3)ccc2O1 [Compound 2AK, (S)-3-(4-((3-(trifluoromethyl)-phenyl)sulfonyl)-6-(5-(trifluoromethyl)pyridin-3-yl)-3,4-dihydro-2H-benzo[b][1,4]oxazin-2-yl)propanoic acid] | > 6.30 | ** (The symbol “**” indicates a value in the range of greater than 90 to 150) | > 6.30 | **** (The symbol “****” indicates a value greater than 200)
O=C(O)CC[C@H]1CN(S(=O)(=O)c2cccc(C(F)(F)F)c2)c2cc(-c3cccc(Cl)c3Cl)ccc2O1 [Compound 2AL, (S)-3-(6-(2,3-dichlorophenyl)-4-((3-(trifluoromethyl)phenyl)-sulfonyl)-3,4-dihydro-2H-benzo[b][1,4]oxazin-2-yl)propanoic acid] | > 6.30 | *** (The symbol “***” indicates a value in the range of greater than 150 to 200) | > 6.30 | **** (The symbol “****” indicates a value greater than 200)
O=C(O)CC[C@H]1CN(S(=O)(=O)c2cccc(C(F)(F)F)c2)c2cc(-c3cc(Cl)ccc3Cl)ccc2O1 [Compound 2AM, (S)-3-(6-(2,5-dichlorophenyl)-4-((3-(trifluoromethyl)phenyl)-sulfonyl)-3,4-dihydro-2H-benzo[b][1,4]oxazin-2-yl)propanoic acid] | > 6.30 | – | > 6.30 | –
COc1ccc(-c2ccc3c(c2)N(S(=O)(=O)c2cccc(C(F)(F)F)c2)C[C@H](CCC(=O)O)O3)cc1Cl [Compound 2AN, (S)-3-(6-(3-chloro-4-methoxyphenyl)-4-((3-(trifluoromethyl)phenyl)-sulfonyl)-3,4-dihydro-2H-benzo[b][1,4]oxazin-2-yl)propanoic acid] | > 6.30 | ** (The symbol “**” indicates a value in the range of greater than 90 to 150) | > 6.30 | **** (The symbol “****” indicates a value greater than 200)
COc1cc(Cl)cc(-c2ccc3c(c2)N(S(=O)(=O)c2cccc(C(F)(F)F)c2)C[C@H](CCC(=O)O)O3)c1 [Compound 2AO, (S)-3-(6-(3-chloro-5-methoxyphenyl)-4-((3-(trifluoromethyl)phenyl)-sulfonyl)-3,4-dihydro-2H-benzo[b][1,4]oxazin-2-yl)propanoic acid] | > 6.30 | *** (The symbol “***” indicates a value in the range of greater than 150 to 200) | > 6.30 | **** (The symbol “****” indicates a value greater than 200)
O=C(O)CC[C@H]1CN(S(=O)(=O)c2cccc(C(F)(F)F)c2)c2cc(-c3cccc(OC(F)(F)F)c3)ccc2O1 [Compound 2AP, (S)-3-(6-(3-(trifluoromethoxy)-phenyl)-4-((3-(trifluoromethyl)-phenyl)sulfonyl)-3,4-dihydro-2H-benzo[b][1,4]oxazin-2-yl)propanoic acid] | > 6.30 | ** (The symbol “**” indicates a value in the range of greater than 90 to 150) | > 6.30 | **** (The symbol “****” indicates a value greater than 200)
Cn1cc(-c2ccc3c(c2)N(S(=O)(=O)c2cccc(C(F)(F)F)c2)C[C@H](CCC(=O)O)O3)cn1 [Compound 2AQ, (S)-3-(6-(1-methyl-1H-pyrazol-4-yl)-4-((3-(trifluoromethyl)-phenyl)sulfonyl)-3,4-dihydro-2H-benzo[b][1,4]oxazin-2-yl)propanoic acid] | 5.30 to 6.30 | * (The symbol “*” indicates a value in the range of 25 to 90) | 5.30 to 6.30 | **** (The symbol “****” indicates a value greater than 200)
Cn1nccc1-c1ccc2c(c1)N(S(=O)(=O)c1cccc(C(F)(F)F)c1)C[C@H](CCC(=O)O)O2 [Compound 2AR, (S)-3-(6-(1-methyl-1H-pyrazol-5-yl)-4-((3-(trifluoromethyl)-phenyl)sulfonyl)-3,4-dihydro-2H-benzo[b][1,4]oxazin-2-yl)propanoic acid] | < 5.00 | – | 5.30 to 6.30 | * (The symbol “*” indicates a value in the range of 25 to 90)
CCOc1cccc(-c2ccc3c(c2)N(S(=O)(=O)c2cccc(C(F)(F)F)c2)C[C@H](CCC(=O)O)O3)c1 [Compound 2AS, (S)-3-(6-(3-ethoxyphenyl)-4-((3-(trifluoromethyl)phenyl)-sulfonyl)-3,4-dihydro-2H-benzo[b][1,4]-oxazin-2-yl)propanoic acid] | 5.30 to 6.30 | ** (The symbol “**” indicates a value in the range of greater than 90 to 150) | > 6.30 | **** (The symbol “****” indicates a value greater than 200)
N#Cc1cccc(-c2ccc3c(c2)N(S(=O)(=O)c2cccc(C(F)(F)F)c2)C[C@H](CCC(=O)O)O3)c1 [Compound 2AT, (S)-3-(6-(3-cyanophenyl)-4-((3-(trifluoromethyl)phenyl)-sulfonyl)-3,4-dihydro-2H-benzo[b][1,4]oxazin-2-yl)propanoic acid] | 5.30 to 6.30 | ** (The symbol “**” indicates a value in the range of greater than 90 to 150) | > 6.30 | **** (The symbol “****” indicates a value greater than 200)
O=C(O)CC[C@H]1CN(S(=O)(=O)c2cccc(C(F)(F)F)c2)c2cc(-c3cccc(O)c3)ccc2O1 [Compound 2AU, (S)-3-(6-(3-hydroxyphenyl)-4-((3-(trifluoromethyl)phenyl)-sulfonyl)-3,4-dihydro-2H-benzo[b][1,4]oxazin-2-yl)propanoic acid] | 5.30 to 6.30 | * (The symbol “*” indicates a value in the range of 25 to 90) | > 6.30 | *** (The symbol “***” indicates a value in the range of greater than 150 to 200)
CC(C)Oc1cccc(-c2ccc3c(c2)N(S(=O)(=O)c2cccc(C(F)(F)F)c2)C[C@H](CCC(=O)O)O3)c1 [Compound 2AV, (S)-3-(6-(3-isopropoxyphenyl)-4-((3-(trifluoromethyl)phenyl)-sulfonyl)-3,4-dihydro-2H-benzo[b][1,4]oxazin-2-yl)propanoic acid] | 5.30 to 6.30 | * (The symbol “*” indicates a value in the range of 25 to 90) | > 6.30 | **** (The symbol “****” indicates a value greater than 200)
O=C(O)CC[C@H]1CN(S(=O)(=O)c2cccc(C(F)(F)F)c2)c2cc(-c3ccccc3O)ccc2O1 [Compound 2AW, (S)-3-(6-(2-hydroxyphenyl)-4-((3-(trifluoromethyl)phenyl)-sulfonyl)-3,4-dihydro-2H-benzo[b][1,4]oxazin-2-yl)propanoic acid] | 5.30 to 6.30 | ** (The symbol “**” indicates a value in the range of greater than 90 to 150) | > 6.30 | **** (The symbol “****” indicates a value greater than 200)
Cc1cccc(-c2ccc3c(c2)N(S(=O)(=O)c2cccc(C(F)(F)F)c2)C[C@H](CCC(=O)O)O3)c1F [Compound 2AY, (S)-3-(6-(2-fluoro-3-methyl-phenyl)-4-((3-(trifluoro-methyl)phenyl)sulfonyl)-3,4-dihydro-2H-benzo[b][1,4]-oxazin-2-yl)propanoic acid] | 5.30 to 6.30 | **** (The symbol “****” indicates a value greater than 200) | > 6.30 | **** (The symbol “****” indicates a value greater than 200)
Cc1nnc(-c2ccc3c(c2)N(S(=O)(=O)c2cccc(C(F)(F)F)c2)C[C@H](CCC(=O)O)O3)s1 [Compound 2AZ, (S)-3-(6-(5-methyl-1,3,4-thiadiazol-2-yl)-4-((3-(trifluoromethyl)phenyl)-sulfonyl)-3,4-dihydro-2H-benzo[b][1,4]oxazin-2-yl)propanoic acid] | < 5.00 | ** (The symbol “**” indicates a value in the range of greater than 90 to 150) | < 5.00 | –
Cc1ccc(F)cc1-c1ccc2c(c1)N(S(=O)(=O)c1cccc(C(F)(F)F)c1)C[C@H](CCC(=O)O)O2 [Compound 2BA, (S)-3-(6-(5-fluoro-2-methylphenyl)-4-((3-(trifluoromethyl)phenyl)sulfonyl)-3,4-dihydro-2H-benzo[b][1,4]oxazin-2-yl)propanoic acid] | > 6.30 | ** (The symbol “**” indicates a value in the range of greater than 90 to 150) | > 6.30 | **** (The symbol “****” indicates a value greater than 200)
